Reference: patent US20170202218A1, “Materials for Disinfection Produced by Non-Thermal Plasma” (DREXEL UNIVERSITY, priority 2010, published 2017)

Assays:
E coli = conditions: in solution, after only 30 seconds; cited from earlier work
E. coli = conditions: dispersed for 15 sec, no corona discharge applied
Description: An agar place of bacterial (containing colonies of 10^5 E. coli) was placed on top of a grounded metal plate.

[H]/N=C(\N/C(=N/[H])NCCCCCCNC(=N)NC(=N)Nc1ccc(Cl)cc1)Nc1ccc(Cl)cc1 [chlorhexidine]
log reduction in E coli (E coli): 3.5 log

CCO [alcohol, ethanol]
disinfection of E. coli on agar plate (E. coli): some spotty effects
